Reference: patent US4276304A, “Novel benzylalcohol derivative and process for preparing the same” (priority 1979, dated 1981)
“And” between values parts separate entries of the source, which are not always exact repeats. Equal entries are not always repeated. Where two headings read alike, the source gives them in different places.

Legend:
blood sugar [1] = experiment: Blood sugar-lowering activity (oral test compound, subcutaneous glucose load); assay type: in vivo, male ddY mice; details: for minimal effective dose: Mus musculus, 1 h, read-out: Minimum effective dose (blood sugar-lowering activity)
Procedure: For example, when the blood sugar-lowering activity was estimated by orally administering a test compound to mice immediately before subcutaneous injection of glucose, said activity of the compound of the present invention was about 100 to about 1000 times stronger than that of Phenformin (Chemical name: 1-phenethylbiguanide).
An aqueous solution or suspension (10 ml/kg) of a test compound was administered orally through a stomach tube to a group of male ddY mice (each group consisting of five mice) which fasted for 20 hours. A physiological saline solution (10 ml/kg) containing 10 w/v % glucose was injected subcutaneously to the mice immediately after the oral administration of the test compound. One hour after the injection of glucose, 0.02 ml of blood was collected from the tail vein of the mice. Then, the amount of glucose in the blood sample was estimated by the glucose oxidase method (H. U. Bergmeyer & E. Bernt, "Methods of Enzymatic Analysis", H. U. Bergmeyer (Ed.), Acadamic Press, New York & London, 1963, page 123). The blood sugar-lowering activity of the test compound was calculated by the following formula: [formula] Further, on the basis of the potency ratio calculated above, the activity of the test compound was expressed as follows: […]

blood platelets = experiment: Preventive effect upon the aggregation of blood platelets (collagen-induced, platelet-rich plasma); assay type: cell-based, male Sprague-Dawley rats; details: for inhibition at 100 µg/mL: Rattus norvegicus, Platelet
mice = experiment: Acute toxicity / maximum tolerance dose (intraperitoneal injection); assay type: in vivo; details: 48 hours after intraperitoneal injection
Procedure: For example, the maximum tolerance dose (M.T.D.) of α-[(α,α-dimethyl-3,4-dimethoxyphenethylamino)methyl]-2-benzyloxybenzylalcohol oxalate and α-[(α,α-dimethyl-3,4-dimethoxyphenethylamino)methyl]-2-chlorobenzylalcohol hydrochloride which was estimated 48 hours after intraperitoneal injection thereof to a group of 4 mice was not less than 100 mg/kg.

blood sugar [2] = details: U.S. Pat. Nos. 4,032,575 and 4,131,686, Japanese Patent Publication No. 71428/1977; cited from earlier work
[3] = 100 μg/ml, graded against acetylsalicylic acid 100 μg/ml
[4] = test compound 100 μg/ml, collagen, rat PRP
[5] = read-out: Inhibition (%) against platelet aggregation, A* (test compound group)

Row | Molecule | Minimum effective dose (blood sugar-lowering activity) (blood sugar [1]; oral, mice) [mg/kg] | Platelet aggregation inhibiting activity (blood platelets; [3]) | Inhibition (%) against platelet aggregation, A* (test compound group) (blood platelets; [4]) [%] | further results
1 | α-[(α,α-dimethyl-3,4-methylenedioxyphenethylamino)methyl]-2-benzyloxybenzylalcohol 1/2 oxalate [Test compound 16] | 0.3 | + (not less than 10% inhibition of platelet aggregation but said percentage inhibition was not higher than that of acetylsalicylic acid (100 μg/ml)) | 29 | 
2 | α-[(α,α-dimethyl-2,3,4-trimethoxyphenethylamino)methyl]- 2-methoxybenzylalcohol hydrochloride [Test compound 13] | 1.0 | + (not less than 10% inhibition of platelet aggregation but said percentage inhibition was not higher than that of acetylsalicylic acid (100 μg/ml)) | 37 | 
3 | α-[(α,α-dimethyl-3,4-dimethoxyphenethylamino)methyl]-2-methoxybenzylalcohol hydrochloride [Test compound 8] | 1.0 | ++ | 57 | 
4 | α-[(α,α-dimethyl-3,4-dimethoxyphenethylamino)methyl]-2-chlorobenzylalcohol hydrochloride [Test compound 10] | 1.0 | ++ | 84 | maximum tolerance dose (M.T.D.) (mice): not less than 100 mg/kg
5 | CCCCOc1ccccc1C(O)CNC(C)(C)Cc1ccc(OC)cc1 (centres unmarked) [compound 4] |  |  |  | minimal effective dose (blood sugar [1]; oral, mice): 0.3 mg/kg
6 | COc1ccc(CCNCC(O)c2ccccc2OC)cc1OC (stereo not drawn) [α-[(3,4-dimethoxyphenethylamino)methyl]-2-methoxybenzylalcohol, reference compound] |  |  |  | blood sugar-lowering activity (in words) (blood sugar [2]): show a blood sugar-lowering activity; preventive effect upon the aggregation of blood platelets (in words) (blood platelets): no substantial preventive effect
7 | CC(=O)Oc1ccccc1C(=O)O [acetylsalicylic acid, reference compound] |  |  |  | Inhibition (%) against platelet aggregation, B** (acetylsalicylic acid group) (blood platelets; acetylsalicylic acid 100 μg/ml, comparison group for the test compound of the same line): 31% and 58% and 50% and 56% and 54%
8 | α-[(α,α-dimethyl-4-methoxyphenethylamino)methyl]-2-benzyloxybenzylalcohol hydrochloride [Example 7] | 0.3 | ++ | 90 | 
9 | COc1ccc(CC(C)(C)NCC(O)c2ccccc2OC)cc1 (centres unmarked) [compound 3] |  | ++ |  | minimal effective dose (blood sugar [1]; po): 0.1 mg/kg; inhibition at 100 µg/mL (blood platelets; [5]): 80%
10 | COc1ccc(CC(C)(C)NCC(O)c2ccccc2O)cc1 (centres unmarked) [compound 1] |  | ++ |  | minimal effective dose (blood sugar [1]; po): 0.3 mg/kg; inhibition at 100 µg/mL (blood platelets; [5]): 90%
11 | α-[(α,α-dimethyl-4-methoxyphenethylamino)methyl]-2-methoxybenzylalcohol 1/2 oxalate [Test compound 3] | 1.0 | + (not less than 10% inhibition of platelet aggregation but said percentage inhibition was not higher than that of acetylsalicylic acid (100 μg/ml)) | 57 | 
12 | COc1ccc(CC(C)(C)NCC(O)c2ccccc2Cl)cc1.Cl (stereo not drawn) [Test compound 5, α-[(α,α-dimethyl-4-methoxyphenethylamino)-methyl]-2-chlorobenzylalcohol hydrochloride] |  |  |  | minimal effective dose (blood sugar [1]; po): 0.1 mg/kg
13 | α-[(α,α-dimethyl-3,4-methylenedioxyphenethylamino)methyl]-2-methoxybenzylalcohol 1/2 succinate [Test compound 17] | 2.0 |  |  | 
14 | COc1ccc(CCNCC(O)c2ccccc2O)cc1OC (stereo not drawn) [α-[(3,4-dimethoxyphenethylamino)methyl]-2-hydroxybenzylalcohol, reference compound] |  |  |  | blood sugar-lowering activity (in words) (blood sugar [2]): show a blood sugar-lowering activity; preventive effect upon the aggregation of blood platelets (in words) (blood platelets): no substantial preventive effect
15 | α-[(α,α-dimethyl-3,4-dimethoxyphenethylamino)methyl]-2-benzyloxybenzylalcohol oxalate [Test compound 7] | 0.3 | + (not less than 10% inhibition of platelet aggregation but said percentage inhibition was not higher than that of acetylsalicylic acid (100 μg/ml)) | 17 | maximum tolerance dose (M.T.D.) (mice): not less than 100 mg/kg
16 | α-[(α,α-dimethyl-3,4-dimethoxyphenethylamino)methyl]-2-n-butoxybenzylalcohol hydrochloride [Test compound 9] | 1.0 | + (not less than 10% inhibition of platelet aggregation but said percentage inhibition was not higher than that of acetylsalicylic acid (100 μg/ml)) | 33 | 
17 | α-[(α,α-dimethyl-2,3,4-trimethoxyphenethylamino)methyl]- 2-chlorobenzylalcohol hydrochloride [Test compound 14] | 0.1 | ++ | 93 | 
18 | COc1ccc(CCNCC(O)c2ccccc2OCc2ccccc2)cc1OC (stereo not drawn) [α-[(3,4-dimethoxyphenethylamino)methyl]-2-benzyloxybenzylalcohol] |  |  |  | blood sugar-lowering activity (in words) (blood sugar [2]): show a blood sugar-lowering activity
19 | COc1ccc(CC(C)(C)NCC(O)c2ccccc2OCc2ccccc2)cc1 (centres unmarked) [compound 2] |  |  |  | minimal effective dose (blood sugar [1]; oral, mice): 1 mg/kg; inhibition at 100 µg/mL (blood platelets; 100 μg/ml, graded against acetylsalicylic acid 100 μg/ml, read-out: Platelet aggregation inhibiting activity): > 10%; inhibition at 100 µg/mL (blood platelets; test compound 100 μg/ml, collagen, rat PRP, read-out: Inhibition (%) against platelet aggregation, A* (test compound group)): 27%
20 | α-[(α,α-dimethyl-2,3,4-trimethoxyphenethylamino)methyl]- 2-hydroxybenzylalcohol 1/2 oxalate [Test compound 11] | 1.0 | ++ | 59 | 
21 | α-[(α,α-dimethyl-2,3,4-trimethoxyphenethylamino)methyl]- 2-benzyloxybenzylalcohol 1/2 oxalate [Test compound 12] | 1.0 | ++ | 85 | 
22 | α-[(α,α-dimethyl-4-methoxyphenethylamino)methyl]-2-hydroxybenzylalcohol 1/2 oxalate [Test compound 1] | 0.3 | + (not less than 10% inhibition of platelet aggregation but said percentage inhibition was not higher than that of acetylsalicylic acid (100 μg/ml)) | 22 | 
23 | α-[(α,α-dimethyl-3,4-dimethoxyphenethylamino)methyl]-2-hydroxybenzylalcohol 1/2 oxalate [Test compound 6] | 1.0 | ++ |  | 
24 | α-[(α,α-dimethyl-4-methoxyphenethylamino)methyl]-2-n-butoxybenzylalcohol hydrochloride [Test compound 4] | 0.1 | + (not less than 10% inhibition of platelet aggregation but said percentage inhibition was not higher than that of acetylsalicylic acid (100 μg/ml)) | 31 | 
25 | α-[(α,α-dimethyl-3,4-methylenedioxyphenethylamino)methyl]-2-hydroxybenzylalcohol 1/2 oxalate [Test compound 15] | 5.0 |  |  | 
